Measurements reported in patent US20260242440A1, “NOVEL MEANS TO MODULATE NMDA RECEPTOR-MEDIATED TOXICITY” (FUNDAMENTAL PHARMA GMBH, priority 2018, published 2026).
Entries after “also recorded” stand apart in the source; their conditions may differ.

Assays:
HEK293 cells = assay: Luminescent cytotoxicity assay, HEK293 cells transfected with GRIN1 and GRIN2A or GRIN2B; assay type: cell-based, human; conditions: compound added 6 h after transfection; cell death 48 h after transfection
Protocol: HEK293 cells were cultured in Dulbecco's Modified Eagle Medium (DMEM, Gibco™ 41965-039) supplement with 10% Fetal Bovine Serum (FBS, Gibco™, 10270), 1% Sodium Pyruvate (Gibco™, 11360070), 1% MEM NEAA (GibcoT^M, 11140035) and 0.5% Penicillin-Streptomycin (P-S; Sigma, P0781) and Passagel5-25 were used for experiments.
To test the cytotoxicity of compounds according to the present invention, HEK293 cells (70-80% confluent) were transfected 24 hours after plating with both GRIN1 and GRIN2 Å or GRIN2B, respectively (1:[…]) with Lipofectamine 2000 according to manufacturer's instructions. The relative number of dead cells in the population at the indicated time points after transfection was measured with the CytoTox-Glo™ Cytotoxicity assay (Promega, G9290) according to manufacturer's instruction with minor modification. Briefly, 10% of total medium were mixed with 10 μL AAF-amino luciferin to reach a final volume at 200 μL with water, the dead cell relative luminescence units (DRLU) was measured by GloMax (Promega) in a 96 well white bottom polystyrene microplate (Corning Costar®, 3912). After all the measurements, lysis reagents have been added to the cells and 10% of lysate was used for the total cell relative luminescence units (TRLU) measurement. Cell death was calculated by the following equations: […]
For drug testing, P4, P8, P9, P13 and P15 were added to the medium at indicated concentration 6 h after transfection. DRLU, TRLU and cell death were measured and calculated 48 h after transfection.

synaptic NMDA receptor = assay: Gabazine induced calcium influx into mitochondria (synaptic NMDA receptor signalling); assay type: cell-based, mouse; conditions: primary cultured neurons, polypeptides expressed via rAAV
Protocol: Gabazine induced mitochondrial Ca^2+ response in primary cultured neurons is recorded and analysed as described in a previous study (Qiu et al, Nat Commun. 2013; 4:2034, incorporated herewith by reference) using a FRET calcium indicator 4mtD3cpv that specifically located to mitochondria. Briefly, mitochondrial Ca^2+ levels were detected with FRET-based and mitochondrial targeted Ca^2+ indicator 4mtD3cpv. 4mtD3cpv were excited at 430±12 nm (CFP) and 500±10 nm (YFP), and emission of CFP (470±12 nm) and YFP (535±15 nm) were separated and filtered using a DualView beam splitter (AHF Analysentechnik and MAG Biosystems), and all fluorescence images were recorded through a 20× water-immersion objective at 1 Hz.
In a further experiment the inventors assessed the impact of the polypeptide comprising the sequence of SEQ ID NO:5 and SEQ ID NO: 54, respectively, on Gabazine induced calcium influx (mitochondria), a measure of synaptic NMDA receptor signalling. The experiment was carried out in primary cultured neurons as described above.

Row | Molecule | NMDA receptor induced cell death (HEK293 cells) | Gabazine induced calcium influx into mitochondria (synaptic NMDA receptor)
1 | CCN(CCN)Cc1cccc(Br)c1 [P4] | reduced the level of NMDA receptor induced cell death | –
2 | SEQ ID NO:5: polypeptide, amino acid residues 633-689 of mouse TRPM4 (NSEERAARLLLRRCPLWGEATCLQLAMQADARAFFAQDGVQSLLTQKWWGEMDSTTP; listed as Mus musculus) | – | neither of these polypeptides affects synaptic NMDA receptor signalling; also recorded: not affected
